Structures are written as SMILES. Bounds are passed on as bounds.

For data set [1] the following is noted: cited from earlier work.
The nature of data set [2]: Human plasma pharmacokinetics of approved MEK inhibitors. In kind it is in vivo. The settings on record: human dosing cycle.
The nature of data set [3]: Plasma Stability (% remaining @2 hour). In kind it is in vitro ADME. The settings on record: SD Rat; 2 μM.
A short description of data set [4]: Plasma Stability (% remaining @2 hour). Conditions: CD-1 Mouse; 2 μM. In kind it is in vitro ADME.
Data set [5] is described as follows: Plasma Stability (% remaining @2 hour). Format: in vitro ADME. The settings on record: Beagle Dog; 2 μM.
The nature of data set [6]: Plasma Stability (% remaining @2 hour). The settings on record: Human; 2 μM. In kind it is in vitro ADME.
The target of data set [7] is CYP450 2C19 (Homo sapiens, UniProt P33261). Put plainly: CYP450 Panel. In kind it is in vitro ADME. Conditions: 10 μM; substrate mephenytoin; in % (unit assumed).
Sequence of CYP450 2C19 (P33261 whole entry): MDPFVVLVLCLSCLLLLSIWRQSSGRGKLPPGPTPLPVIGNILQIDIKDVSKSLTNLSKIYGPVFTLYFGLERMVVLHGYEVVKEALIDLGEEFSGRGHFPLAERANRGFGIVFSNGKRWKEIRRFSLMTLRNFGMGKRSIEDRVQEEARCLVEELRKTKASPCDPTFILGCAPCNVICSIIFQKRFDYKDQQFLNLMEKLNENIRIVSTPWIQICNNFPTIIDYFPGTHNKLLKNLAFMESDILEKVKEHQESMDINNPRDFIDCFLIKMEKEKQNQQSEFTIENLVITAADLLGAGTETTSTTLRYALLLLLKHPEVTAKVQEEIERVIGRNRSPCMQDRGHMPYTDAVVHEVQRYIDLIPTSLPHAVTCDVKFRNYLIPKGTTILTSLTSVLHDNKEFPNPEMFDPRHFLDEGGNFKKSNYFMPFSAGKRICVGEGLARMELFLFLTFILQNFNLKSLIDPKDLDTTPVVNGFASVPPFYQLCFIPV
Data set [8] addresses T1, CYP450 2C8 (Homo sapiens, UniProt P10632).
T1 sequence (P10632 1-490): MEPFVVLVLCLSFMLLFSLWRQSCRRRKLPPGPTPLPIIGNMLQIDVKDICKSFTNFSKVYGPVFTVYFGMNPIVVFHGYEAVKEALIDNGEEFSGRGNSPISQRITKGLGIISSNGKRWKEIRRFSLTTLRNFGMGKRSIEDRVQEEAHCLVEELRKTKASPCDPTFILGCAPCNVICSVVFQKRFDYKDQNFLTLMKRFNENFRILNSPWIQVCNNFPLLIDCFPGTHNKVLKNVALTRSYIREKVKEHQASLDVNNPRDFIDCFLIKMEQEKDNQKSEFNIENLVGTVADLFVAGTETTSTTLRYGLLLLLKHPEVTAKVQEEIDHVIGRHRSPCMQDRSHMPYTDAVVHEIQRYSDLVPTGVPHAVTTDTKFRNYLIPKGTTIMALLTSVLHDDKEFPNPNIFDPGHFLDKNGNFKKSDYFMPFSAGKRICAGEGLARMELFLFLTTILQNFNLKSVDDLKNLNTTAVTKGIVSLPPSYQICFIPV
Put plainly: CYP450 Panel. In kind it is in vitro ADME. Conditions: 10 μM; substrate amodiaquine.

In data set [9] the test system is Caco-2. In words: Caco-2 permeability. Conditions: 10 μM, 2 hrs. (Passage across Caco-2 layers is used to estimate intestinal permeability.)
Data set [10] concerns the target CYP450 3A4 (Homo sapiens, UniProt P08684). In words: CYP450 Panel. Format: in vitro ADME. The settings on record: 10 μM.
Data set [11] is described as follows: Tissue pharmacokinetics in Colon-26 tumor bearing mice, 2-hour post dose. In kind it is in vivo. The settings on record: single dose 100 mg/kg p.o. The procedure: Female mice (either athymic BALC/c nude, or BALB/c mice) were inoculated with a single subcutaneous injection of 0.2 ml of mouse Colon-26 cell suspension (1×10^5 cells per animal) in the inguinal region. Colon26 (C26) tumor bearing mice received a single dose (3 mice/treatment) of vehicle (10% DMSO/90% [20% SBE-R-CD in saline], pH 5) containing compounds at 100 mg/kg by gavage (p.o.) and 2-hour post dose humanely euthanized.
Blood was obtained through cardiac puncture into K+EDTA tubes, mixed by inversion and centrifuged to obtain the plasma. Tissues were excised, cleaned of surrounding tissues. All samples immediately snap frozen in liquid N2 prior to LC-MS/MS analysis (using Waters HSS T3 2.1×50 mm (1.8 um) LC column, and an API-6500 Electrospray MS unit).

The target in data set [12] is CYP450 2D6 (Homo sapiens, UniProt P10635). Put plainly: CYP450 Panel. The settings on record: 10 μM; substrate dextromethorphan; in % (unit assumed).
Sequence of CYP450 2D6 (P10635 whole entry): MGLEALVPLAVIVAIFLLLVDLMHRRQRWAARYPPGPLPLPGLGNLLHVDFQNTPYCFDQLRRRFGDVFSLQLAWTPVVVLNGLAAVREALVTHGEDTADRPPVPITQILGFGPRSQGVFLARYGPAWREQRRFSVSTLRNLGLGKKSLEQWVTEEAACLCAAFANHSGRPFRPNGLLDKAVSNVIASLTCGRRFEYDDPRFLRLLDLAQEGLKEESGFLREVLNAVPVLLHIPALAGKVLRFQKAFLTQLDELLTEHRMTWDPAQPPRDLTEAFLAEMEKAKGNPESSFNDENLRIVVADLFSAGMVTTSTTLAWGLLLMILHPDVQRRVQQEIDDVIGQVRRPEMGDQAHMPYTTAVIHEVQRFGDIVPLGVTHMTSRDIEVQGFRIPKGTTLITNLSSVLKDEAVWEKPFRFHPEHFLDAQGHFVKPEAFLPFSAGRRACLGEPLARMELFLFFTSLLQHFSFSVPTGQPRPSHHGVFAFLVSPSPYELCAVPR
Data set [13] is described as follows: Microsome Stability (% remaining @1 hour). Format: in vitro ADME. Conditions: SD Rat; 2 μM.
Data set [14] is described as follows: Microsome Stability (% remaining @1 hour). In kind it is in vitro ADME. Conditions: Beagle Dog; 2 μM.
Data set [15] in a line: Microsome Stability (% remaining @1 hour). Conditions: CD-1 Mouse; 2 μM.
Data set [16] in a line: eLogD (lipophilicity; pH=7.4). In kind it is physicochemical. Here is the method:
Test compounds were dissolved in DMSO at a concentration of 10 mM and further diluted with methanol:water 1:1. Samples were analyzed using gradient HPLC with three different isocratic mobile phases of 0.25% octanol in methanol (60, 65 and 70%) and 20 mM MOPS buffer (pH 7.4) with decylamine. If needed, (for low E log Doct compounds) the isocratic mobile phases were adjusted to e.g. 40, 45 and 50% methanol. Peaks were detected using a diode array at absorbance 220-320 nm.
Capacity factors data (k′_(tr−_t0)/t0) obtained at various amounts of methanol were extrapolated to 0% methanol and k′w values are determined using a linear procedure. E log Doct (7.4) is calculated using a series of reference standards with known Log D values. Each experiment was performed in triplicate.

Data set [17] is described as follows: Microsome Stability (% remaining @1 hour). The settings on record: Human; 2 μM. In kind it is in vitro ADME.
The target in data set [18] is T2, CYP450 1A2 (Homo sapiens, UniProt P05177).
T2 sequence (P05177 1-516): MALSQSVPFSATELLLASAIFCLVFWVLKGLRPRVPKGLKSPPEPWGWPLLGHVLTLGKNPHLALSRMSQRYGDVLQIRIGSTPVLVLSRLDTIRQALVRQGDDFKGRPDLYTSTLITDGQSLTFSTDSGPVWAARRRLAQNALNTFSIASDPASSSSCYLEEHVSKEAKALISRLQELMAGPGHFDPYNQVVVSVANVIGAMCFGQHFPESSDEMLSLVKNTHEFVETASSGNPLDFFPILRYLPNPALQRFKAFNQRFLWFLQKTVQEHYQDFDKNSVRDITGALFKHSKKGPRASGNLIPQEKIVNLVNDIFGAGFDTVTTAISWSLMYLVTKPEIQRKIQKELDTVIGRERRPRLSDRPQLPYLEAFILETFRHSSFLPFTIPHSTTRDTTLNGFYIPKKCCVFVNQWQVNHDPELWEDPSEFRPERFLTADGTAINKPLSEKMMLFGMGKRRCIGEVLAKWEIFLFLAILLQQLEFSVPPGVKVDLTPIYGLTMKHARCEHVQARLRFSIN
Put plainly: CYP450 Panel. The settings on record: 10 μM; substrate phenacetin; in % (unit assumed).

In data set [19] the target is CYP450 2C9 (Homo sapiens, UniProt P11712). Put plainly: CYP450 Panel. Format: in vitro ADME. The settings on record: 10 μM; substrate Diclofenac; in % (unit assumed).
Sequence of CYP450 2C9 (P11712 whole entry): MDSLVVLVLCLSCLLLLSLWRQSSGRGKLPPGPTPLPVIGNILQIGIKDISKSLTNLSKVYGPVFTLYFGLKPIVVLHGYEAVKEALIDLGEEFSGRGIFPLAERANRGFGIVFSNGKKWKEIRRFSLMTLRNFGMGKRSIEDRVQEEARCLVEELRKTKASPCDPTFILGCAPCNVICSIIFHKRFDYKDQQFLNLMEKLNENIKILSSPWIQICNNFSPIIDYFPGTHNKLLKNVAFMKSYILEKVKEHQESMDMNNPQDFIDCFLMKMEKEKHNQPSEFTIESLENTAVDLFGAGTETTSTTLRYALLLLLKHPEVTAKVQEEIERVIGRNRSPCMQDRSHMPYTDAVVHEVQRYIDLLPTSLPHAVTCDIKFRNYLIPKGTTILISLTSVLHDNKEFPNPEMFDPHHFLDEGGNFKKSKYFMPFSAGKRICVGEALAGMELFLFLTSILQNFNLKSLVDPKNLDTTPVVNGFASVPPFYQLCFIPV

Sequence of CYP450 3A4 (P08684 whole entry): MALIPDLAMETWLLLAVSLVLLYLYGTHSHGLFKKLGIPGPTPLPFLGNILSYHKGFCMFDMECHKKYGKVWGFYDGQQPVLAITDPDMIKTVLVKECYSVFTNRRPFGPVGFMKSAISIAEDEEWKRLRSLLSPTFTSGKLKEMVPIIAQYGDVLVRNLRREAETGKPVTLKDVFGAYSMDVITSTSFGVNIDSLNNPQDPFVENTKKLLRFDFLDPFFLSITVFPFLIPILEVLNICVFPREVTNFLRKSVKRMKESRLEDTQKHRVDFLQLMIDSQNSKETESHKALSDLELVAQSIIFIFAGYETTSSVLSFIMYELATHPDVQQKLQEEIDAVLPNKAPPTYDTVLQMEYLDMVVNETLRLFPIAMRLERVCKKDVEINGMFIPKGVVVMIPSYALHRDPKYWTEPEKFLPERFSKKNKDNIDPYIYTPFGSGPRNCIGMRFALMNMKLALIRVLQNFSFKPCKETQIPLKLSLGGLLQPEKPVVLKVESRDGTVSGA

Usually half-life stands for the time needed for the level to fall by half in the phase considered. `Cn1cnc2c(F)c(Nc3ccc(Br)cc3F)c(C(=O)NOCCO)cc21` [Binimetinib]: the half-life in data set [1] (in vivo) was 3.5 h. For the same compound, the “half-lives per (BID) cycle” value in data set [2] is not above 3.4 half-lives.

For the compound `CC[C@H](C)C(=O)O[C@H]1C[C@@H](C)C=C2C=C[C@H](C)[C@H](CC[C@@H]3C[C@@H](O)CC(=O)O3)[C@H]21` [Lovastatin], the “Plasma stability, % Remaining @2 hour” value in [3] was determined as 0.6%; in [4], 0.6%; in data set [5], 94.1%; in [6], 81.8%.

On to `COc1ccc2[nH]c([S+]([O-])Cc3ncc(C)c(OC)c3C)nc2c1` (centres unmarked) [Omeprazole], for which, in data set [7], the “CYP450 Panel 2C19” value turned out to be 61.6.

Take `CC(C)[N+](C)(CCOC(=O)C1c2ccccc2Oc2ccccc21)C(C)C` [Propantheline]: the “Plasma stability, % Remaining @2 hour” value is recorded as 92.6% in data set [3], 27.1% in [4], 58.4% in data set [5] and 5.7% in data set [6].

`O=c1c(O)c(-c2ccc(O)c(O)c2)oc2cc(O)cc(O)c12` [Quercetin]: the CYP450 Panel 2C8 in data set [8] came to 93.1%.

For `CNC(=C[N+](=O)[O-])NCCSCc1ccc(CN(C)C)o1` [Ranitidine], the “A − B Permeability Ranking” value in data set [9] is reported as “Low”.

In [10] (substrate midazolam), `CNS(=O)(=O)Nc1nccc(Cc2c(C)c3ccc(Oc4ncccn4)cc3oc2=O)c1F` [Reference 2] displayed a CYP450 Panel 3A4 (midazolam) of 16.6%. The compound also displayed a CYP450 Panel 3A4 (testosterone) in [10] (substrate testosterone) of 15.7%. This compound also gave a Liver concentration in [11] of 1990 ng/g. The compound also returned a Muscle concentration in [11] of 550 ng/g. This compound displayed a Plasma concentration in [11] of 5670 ng/mL. In data set [11], this compound had a Tumor concentration of 819 ng/g. For the same compound, the “CYP450 Panel 2C19” value in [7] is on record as −0.9. Besides, the “CYP450 Panel 2D6” value in data set [12] came to 3.4. The “Plasma stability, % Remaining @2 hour” value in data set [3] came to 99.8%; in data set [4], 92.9%; in [5], 99.8%; in data set [6], 91.1%. Also, in data set [9], the “A − B Permeability Ranking” value was “High”. The “Microsome stability, % Remaining @1 hour” value in [13] was 102.0%; in data set [14], 111.6%; in data set [15], 96.0%; in [17], 107.1%. In [16], the “eLogD (lipophilicity; pH = 7.4)” value was 3.6. For the same compound, the “CYP450 Panel 1A2” value in [18] turned out to be 0.8.

For `Nc1ccc(S(=O)(=O)Nc2ccnn2-c2ccccc2)cc1` [Sulfaphenazole], in [19], the “CYP450 Panel 2C9” value was 101.2.

The Tmax is the time at which the peak concentration occurs. Regarding `O=C(c1ccc(F)c(F)c1Nc1ccc(I)cc1F)N1CC(O)([C@@H]2CCCCN2)C1` [cobimetinib], in [1] (human), the Tmax is recorded as 2.4 h and the human plasma half-life is listed as 44 h. Besides, the “half-lives per (BID) cycle” value in data set [2] is on record as not above 0.55 half-lives.

Take `CC(=O)Nc1cccc(-n2c(=O)n(C3CC3)c(=O)c3c(Nc4ccc(I)cc4F)n(C)c(=O)c(C)c32)c1` [trametinib]: the human plasma half-life in data set [1] (human) is reported as 96 h. Further, the “half-lives per (BID) cycle” value in data set [2] is not above 0.25 half-lives.
